Key:
[1] = tested on: native CaCCs in rabbit pulmonary artery smooth muscle cells; details: cited from earlier work
Mouse TMEM16A = target: T1, Mouse TMEM16A (Mus musculus, UniProt Q8BHY3); test: Whole-cell TMEM16A current versus Vm relationship with extracellular A9C, 300 nM [Ca2+]i; assay type: cell-based
T1 construct: expressed in transfected cells; host or cells: HEK-293T
T1 sequence (Q8BHY3 1-960): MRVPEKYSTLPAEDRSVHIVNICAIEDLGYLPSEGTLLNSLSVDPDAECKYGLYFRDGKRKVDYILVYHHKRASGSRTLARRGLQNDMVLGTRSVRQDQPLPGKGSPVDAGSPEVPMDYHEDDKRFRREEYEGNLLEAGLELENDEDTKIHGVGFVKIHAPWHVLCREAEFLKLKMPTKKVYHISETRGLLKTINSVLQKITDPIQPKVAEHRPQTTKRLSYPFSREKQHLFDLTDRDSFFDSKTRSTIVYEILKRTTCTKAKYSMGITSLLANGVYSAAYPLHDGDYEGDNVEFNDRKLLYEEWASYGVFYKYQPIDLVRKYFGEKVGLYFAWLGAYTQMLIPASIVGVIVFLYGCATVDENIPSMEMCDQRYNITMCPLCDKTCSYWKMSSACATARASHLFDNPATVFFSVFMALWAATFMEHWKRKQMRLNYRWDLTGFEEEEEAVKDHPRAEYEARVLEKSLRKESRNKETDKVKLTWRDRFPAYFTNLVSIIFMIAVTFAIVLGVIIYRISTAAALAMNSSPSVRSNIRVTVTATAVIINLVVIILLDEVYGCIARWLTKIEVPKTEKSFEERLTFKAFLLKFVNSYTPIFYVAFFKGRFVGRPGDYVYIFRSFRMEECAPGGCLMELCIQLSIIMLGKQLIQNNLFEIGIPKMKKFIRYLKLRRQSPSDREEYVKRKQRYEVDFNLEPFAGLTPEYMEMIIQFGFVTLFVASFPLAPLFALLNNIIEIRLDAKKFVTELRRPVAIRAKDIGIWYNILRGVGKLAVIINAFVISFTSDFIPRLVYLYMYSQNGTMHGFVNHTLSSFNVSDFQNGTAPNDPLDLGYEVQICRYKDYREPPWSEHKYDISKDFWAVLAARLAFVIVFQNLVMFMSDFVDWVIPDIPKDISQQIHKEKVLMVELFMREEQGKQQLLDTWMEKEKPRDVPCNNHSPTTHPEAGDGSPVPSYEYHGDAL
Description: Mouse TMEM16A (GenBank NM_178642) subcloned into pcDNA3.1 vector was used in this study (Alexander et al., 2013). HEK‐293T cells were cultured as previously described (Smith et al., 2013) and transfected with 0.5–1 μg of TMEM16A and 0.1 μg of CD8 constructs using Fugene HD (Promega, Madison, WI, USA) according to the manufacturer's instructions. Cells were used ~12–36 h after transfection. Transfected cells were visualized using the anti‐CD8 antibody‐coated beads method (Jurman et al., 1994).
TMEM16A currents were measured with the whole‐cell or inside‐out patch configuration of the patch‐clamp technique as detailed in the Supporting Information. The exchange of solutions was achieved by using a local perfusion system consisting of eight tubes of 1.2 mm diameter in which the tip of the patch pipette was inserted. In some experiments, ultra‐rapid (<50 ms) changes in A9C concentration ([A9C]) (‘concentration jumps’) were achieved using a computer‐controlled perfusion system (Warner Instruments, Hamden, CT, USA).
The intracellular solution contained (mM) 130 CsCl, 10 EGTA, 1 MgCl2, 10 HEPES and 8 CaCl2 to obtain ~300 nM of [Ca^2+]i; pH was adjusted to 7.3 with NaOH. The intracellular solutions containing ~600 nM, ~1000 nM and ~12.5 μM [Ca^2+]i were obtained by replacing EGTA with equimolar H‐EDTA and by adding 2.1, 3.1 and 7.8 mM CaCl2 respectively. The extracellular solution contained (mM) 150 NaCl, 1 CaCl2, 1 MgCl2, 10 glucose, 10 D‐mannitol and 10 HEPES; pH was adjusted to 7.4 with NaOH. […] A9C was dissolved in DMSO (stock concentration, 300 mM); thus, the final concentration of DMSO was ≤1%. Aliquots of the stock solution were kept at −20° and used within 5 days.
Current versus V m relationships were constructed by measuring currents in response to 1 s V m steps (test pulses) from −100 to +100 mV in 40 mV increments (unless stated otherwise) after a 1 s V m step to +70 mV (pre‐pulse). Pulses were elicited every 2 s from a holding V m of 0 mV. Steady‐state currents were measured at the end of the test pulses. As detailed in the Results, in the presence of 300 nM [Ca^2+]i and extracellular A9C, the test‐pulse currents reached a peak within the first ~50 ms of the test pulse. These peak currents were also measured and plotted against the V m of the test pulse. Current density was obtained by dividing the current amplitude for the cell capacitance.
For determination of the current reversal potential (E rev), instantaneous currents were estimated from extrapolation of single exponential fits of the test‐pulse currents to the beginning of each test pulse. These instantaneous current values were plotted as a function of the V m, and the relative chord conductance was measured between an interval of ±20 m V around the E rev (Tammaro et al., 2005; Adomaviciene et al., 2013).
The project began by examining if this also applies to cloned TMEM16A channels. In the presence of increasing extracellular [A9C] ([A9C]ext), a pre‐pulse of +70 mV was used to open TMEM16A channels followed by a series of test pulses (Figure 1).
Ta C.M., Adomaviciene A., Rorsman N., Garnett H. and Tammaro P.
SUPPLEMENTARY INFORMATION
TMEM16A currents were measured with the whole-cell or inside-out configuration of
the patch-clamp technique using an Axon 200B amplifier (Molecular Devices, USA)
controlled with GE-pulse software (http://users.ge.ibf.cnr.it/pusch/programs-mik.htm).
Currents were filtered at 2-5 kHz and sampled at 10 kHz, unless stated otherwise. […]

O=C(O)c1c2ccccc2cc2ccccc12 [A9C, Anthracene‐9‐carboxylic acid]
E rev of native CaCC currents ([1]; ref Piper and Greenwood (2003)): did not change | native CaCC tail current increase ([1]; −80 mV, 500 μM A9C, ref Piper and Greenwood, 2003): ~ 3 fold | peak current at −100 mV relative to control (Mouse TMEM16A; 3000 μM A9C extracellular): ~ 13 folds | steady-state current decrease (Mouse TMEM16A; 3000 μM [A9C]ext, Vm > 60 mV, whole-cell): up to approximately threefold | E rev of TMEM16A currents (Mouse TMEM16A; 3000 μM [A9C]ext, control 4.5 ± 1.4 mV): 8.3 ± 1.4 mV | steady-state current increase (Mouse TMEM16A; [A9C]ext ≤ 100 μM, Vm > 60 mV, whole-cell): ~ 1.3 folds | steady-state current change at Vm ≤ 60 mV (Mouse TMEM16A; any [A9C]ext tested (30-3000 μM)): did not change substantially
